Numbered stars: 1 amine (or outer) side, 2 acyl side, 3 side chain; on linkers, the order of the positions; unused ones are H or OH. Bridge positions count the residues as written; N and C are the ends. Square brackets hold non-standard residues; d marks the D form. Peptide text beside a SMILES is read from it. * marks the point of attachment. X17 = NC(=O)[C@H](CCCCNC(=O)CN1CCN(CC(=O)O)CCN(CC(=O)O)CCN(CC(=O)O)CC1)NC(=O)CCC(=O)NCCCOCCOCCOCCCN*; TBMB(SCH2CH2NH-DOTA) = O=C(O)CN1CCN(CC(=O)O)CCN(CC(=O)NCCSCc2cc(C[*:1])cc(C[*:2])c2)CCN(CC(=O)O)CC1; X13 = O=C(O)CN1CCN(CC(=O)O)CCN(CC(=O)N2CCN(Cc3cc(C[*:1])cc(C[*:2])c3)CC2)CCN(CC(=O)O)CC1; X18 = NCCNCC(CNCCN)C(=O)N[C@@H](CCC(=O)O)C(=O)NCCCOCCOCCOCCCN*; 1Nal = N[C@@H](Cc1cccc2ccccc12)C(=O)O; mXylylene = c1cc(C[*:1])cc(C[*:2])c1; Pentanesulfonyl = CCCCCS(=O)(=O)*; Suc = O=C(CCC(=O)[*:2])[*:1]; Nle = CCCC[C@H](N)C(=O)O; Hexanoyl = CCCCCC(=O)*; CO = O=C([*:1])[*:2]; Sar = CNCC(=O)O; NHBu = CCCCN*
Tests used:
[1] = target: T1, Human recombinant FAP (Homo sapiens, UniProt Q12884); experiment: FRET-based FAP protease activity assay; format: biochemical; design: purchased R&D systems 3715-SE; conditions: pIC50 Category (Activity), 37° C.
[2] = target: T2, FAP-expressing human WI-38 fibroblasts (Homo sapiens, UniProt Q12884); experiment: Competitive FACS binding assay
T2 construct: FAP-expressing human WI-38 fibroblasts (ECACC) were cultured in EMEM; host or cells: WI-38 human fibroblasts
Protocol: Cells were analyzed in an Attune NxT flow cytometer. […] […].
Cells were analyzed in an Attune NxT flow cytometer. […]

[3] = target: T1, Human recombinant FAP; experiment: Surface plasmon resonance (Biacore) assay; format: binding
[4] = FRET-based FAP protease activity assay, recombinant human FAP

T1 sequence (Q12884 whole entry): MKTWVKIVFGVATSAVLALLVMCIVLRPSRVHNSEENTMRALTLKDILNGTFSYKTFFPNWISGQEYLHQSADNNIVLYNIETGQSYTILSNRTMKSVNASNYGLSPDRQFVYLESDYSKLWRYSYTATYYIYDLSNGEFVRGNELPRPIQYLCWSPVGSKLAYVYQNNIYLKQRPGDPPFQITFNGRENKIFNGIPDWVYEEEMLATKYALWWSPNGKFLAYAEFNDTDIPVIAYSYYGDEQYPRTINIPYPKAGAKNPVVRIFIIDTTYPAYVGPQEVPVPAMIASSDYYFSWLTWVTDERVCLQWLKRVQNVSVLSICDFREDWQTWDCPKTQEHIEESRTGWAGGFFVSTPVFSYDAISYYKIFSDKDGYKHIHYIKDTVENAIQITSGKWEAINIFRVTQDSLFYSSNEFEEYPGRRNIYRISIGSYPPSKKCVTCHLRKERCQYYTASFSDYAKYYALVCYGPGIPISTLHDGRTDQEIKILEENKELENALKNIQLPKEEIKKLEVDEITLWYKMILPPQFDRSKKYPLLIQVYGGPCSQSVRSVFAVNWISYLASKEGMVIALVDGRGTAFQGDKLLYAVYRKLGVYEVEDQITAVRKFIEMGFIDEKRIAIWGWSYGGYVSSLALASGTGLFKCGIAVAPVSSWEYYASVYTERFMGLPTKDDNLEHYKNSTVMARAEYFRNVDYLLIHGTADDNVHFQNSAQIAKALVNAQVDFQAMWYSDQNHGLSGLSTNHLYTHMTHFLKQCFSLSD
T2 sequence (Q12884 whole entry): as above

| SMILES | IC50 ([1]; FRET-peptide substrate) [nM] | IC50 [2] [nM] | Kd [3] [nM] | IC50 [1, 4] [nM] |
| --- | --- | --- | --- | --- |
| CCCC[C@H](NC(=O)CCC(=O)NCCCOCCOCCOCCCNC(=O)[C@H](CCC(=O)O)NC(=O)C(CNCCN)CNCCN)C(=O)N[C@H]1CSCc2cccc(c2)CSC[C@@H](C(=O)O)NC(=O)[C@H](Cc2ccccc2)NC(=O)[C@H](CCC(=O)O)NC(=O)[C@H]([C@@H](C)O)NC(=O)[C@@H]2CCCN2C(=O)[C@@H]2CCCN2C1=O [3BP-4222, N4Ac-Glu-Ttds-Nle-[Cys-(3MeBn)-Pro-Pro-Thr-Glu-Phe-Cys]-OH] ({X18-Suc}-[Nle]CPPTEFC-OH; linker 2-8 via mXylylene) | 10 to 79.4 | 10 to 79.4 | < 10 | – |
| CCCC[C@H](NC(=O)CCC(=O)NCCCOCCOCCOCCCNC(=O)[C@H](CCC(=O)NC[C@H](O)[C@@H](O)[C@H](O)[C@H](O)CO)NC(=O)C(CNCCN)CNCCN)C(=O)N[C@H]1CSCc2cccc(c2)CSC[C@@H](C(=O)O)NC(=O)[C@H](Cc2ccccc2)NC(=O)[C@H](CCC(N)=O)NC(=O)[C@H]([C@@H](C)O)NC(=O)[C@@H]2CCCN2C(=O)[C@@H]2CCCN2C1=O [3BP-4246, N4Ac-Glu(AGLU)-Ttds-Nle-[Cys-(3MeBn)-Pro-Pro-Thr-Gln-Phe-Cys]-OH] | 10 to 79.4 | 10 to 79.4 | < 10 | – |
| CCCCCC(=O)N[C@H]1CSCc2cc(CSCCNC(=O)CN3CCN(CC(=O)O)CCN(CC(=O)O)CCN(CC(=O)O)CC3)cc(c2)CSC[C@@H](C(=O)NCC(=O)O)NC(=O)[C@H](Cc2ccccc2)NC(=O)[C@H](CCC(N)=O)NC(=O)[C@H]([C@@H](C)O)NC(=O)[C@@H]2CCCN2C(=O)[C@@H]2CCCN2C1=O [3BP-3656, Hex-[Cys(tMeBn(DOTA-AET))-Pro-Pro-Thr-Gln-Phe-Cys]-Gly-OH] (Hexanoyl-CPPTQFCG-OH; linker 1-7 via TBMB(SCH2CH2NH-DOTA)) | – | < 10 | < 10 | < 10 |
| CCCCCC(=O)N[C@H]1CSCc2cc(CSCCNC(=O)CN3CCN(CC(=O)O)CCN(CC(=O)O)CCN(CC(=O)O)CC3)cc(c2)CSC[C@@H](C(=O)O)NC(=O)[C@H](Cc2cccc3ccccc23)NC(=O)[C@H](CCC(N)=O)NC(=O)[C@H]([C@@H](C)O)NC(=O)[C@@H]2CCCN2C(=O)[C@@H]2CCCN2C1=O [3BP-3650, Hex-[Cys(tMeBn(DOTA-AET))-Pro-Pro-Thr-Gln-1Ni-Cys]-OH] (Hexanoyl-CPPTQ[1Nal]C-OH; linker 1-7 via TBMB(SCH2CH2NH-DOTA)) | – | < 10 | < 10 | < 10 |
| CCCCCC(=O)N[C@H]1CSCc2cccc(c2)CSC[C@@H](C(=O)N[C@@H](CC(=O)O)C(=O)NCCCOCCOCCOCCCNC(=O)CCC(=O)N[C@@H](CCCCNC(=O)CN2CCN(CC(=O)O)CCN(CC(=O)O)CCN(CC(=O)O)CC2)C(N)=O)NC(=O)[C@H](Cc2ccccc2)NC(=O)[C@H](CCC(=O)O)NC(=O)[C@H]([C@@H](C)O)NC(=O)[C@@H]2CCCN2C(=O)[C@@H]2CCCN2C1=O [3BP-3396, Hex-[Cys(3MeBn)-Pro-Pro-Thr-Glu-Phe-Cys]-Asp-Ttds-Lys(DOTA)-NH2] (Hexanoyl-CPPTEFCD-X17; linker 1-7 via mXylylene) | – | < 10 | < 10 | < 10 |
| CCCCCC(=O)N[C@H]1CSCc2cc(CSCCNC(=O)CN3CCN(CC(=O)O)CCN(CC(=O)O)CCN(CC(=O)O)CC3)cc(c2)CSC[C@@H](C(=O)O)NC(=O)[C@H](Cc2ccccc2C(F)(F)F)NC(=O)[C@H](CCC(N)=O)NC(=O)[C@H]([C@@H](C)O)NC(=O)[C@@H]2CCCN2C(=O)[C@@H]2CCCN2C1=O [3BP-3680, Hex-[Cys(tMeBn(DOTA-AET))-Pro-Pro-Thr-Gln-Otf-Cys]-OH] | – | < 10 | < 10 | < 10 |
| CCCCCC(=O)N[C@H]1CSCc2cc(CSCCNC(=O)CN3CCN(CC(=O)O)CCN(CC(=O)O)CCN(CC(=O)O)CC3)cc(c2)CSC[C@@H](C(N)=O)NC(=O)[C@H](Cc2ccccc2)NC(=O)[C@H](CCC(=O)O)NC(=O)[C@H]([C@@H](C)O)NC(=O)[C@@H]2CCCN2C(=O)[C@@H]2CCCN2C1=O [3BP-3653, Hex-[Cys(tMeBn(DOTA-AET))-Pro-Pro-Thr-Glu-Phe-Cys]-NH2] (Hexanoyl-CPPTEFC-NH2; linker 1-7 via TBMB(SCH2CH2NH-DOTA)) | – | < 10 | < 10 | < 10 |
| CCCCCC(=O)N[C@H]1CSCc2cc(CSCCNC(=O)CN3CCN(CC(=O)O)CCN(CC(=O)O)CCN(CC(=O)O)CC3)cc(c2)CSC[C@@H](C(N)=O)NC(=O)[C@H](Cc2ccccc2)NC(=O)[C@H](CCC(N)=O)NC(=O)[C@H]([C@@H](C)O)NC(=O)[C@@H]2CCCN2C(=O)[C@@H]2CCCN2C1=O [3BP-3652, Hex-[Cys(tMeBn(DOTA-AET))-Pro-Pro-Thr-Gln-Phe-Cys]-NH2] | – | < 10 | < 10 | < 10 |
| CCCCCC(=O)N[C@H]1CSCc2cc(CSCCNC(=O)CN3CCN(CC(=O)O)CCN(CC(=O)O)CCN(CC(=O)O)CC3)cc(c2)CSC[C@@H](C(=O)N[C@H](CC(=O)O)Cc2ccccc2)NC(=O)[C@H](Cc2ccccc2)NC(=O)[C@H](CCC(N)=O)NC(=O)[C@H]([C@@H](C)O)NC(=O)[C@@H]2CCCN2C(=O)[C@@H]2CCCN2C1=O [3BP-3660, Hex-[Cys(tMeBn(DOTA-AET))-Pro-Pro-Thr-Gin-Phe-Cys]-Bhf-OH] | – | < 10 | < 10 | < 10 |
| CCCCCS(=O)(=O)N[C@H]1CSCc2cc(cc(CN3CCN(C(=O)CN4CCN(CC(=O)O)CCN(CC(=O)O)CCN(CC(=O)O)CC4)CC3)c2)CSC[C@@H](C(=O)N[C@@H](CC(=O)O)C(N)=O)NC(=O)[C@H](Cc2ccccc2)NC(=O)[C@H](CCC(N)=O)NC(=O)[C@H]([C@@H](C)O)NC(=O)[C@@H]2CCCN2C(=O)[C@@H]2CCCN2C1=O [3BP-3692, Pentyl-SO2-[Cys(tMeBn(DOTA-PP))-Pro-Pro-Thr-Gln-Phe-Cys]-Asp-NH2] (Pentanesulfonyl-CPPTQFCD-NH2; linker 1-7 via X13) | – | < 10 | < 10 | < 10 |

Continued, values first:

| IC50 ([1]; FRET-peptide substrate) [nM] | IC50 [2] [nM] | Kd [3] [nM] | IC50 [1, 4] [nM] | SMILES |
| --- | --- | --- | --- | --- |
| < 10 | < 10 | < 10 | – | CCCCNC(=O)N[C@H]1CSCc2cc(CSCCNC(=O)CN3CCN(CC(=O)O)CCN(CC(=O)O)CCN(CC(=O)O)CC3)cc(c2)CSC[C@@H](C(=O)O)NC(=O)[C@H](Cc2ccccc2)NC(=O)[C@H](CCC(N)=O)NC(=O)[C@H]([C@@H](C)O)NC(=O)[C@@H]2CCCN2C(=O)CN(C)C1=O [3BP-4607, nBu-CAyl-[Cys(tMeBn(DOTA-AET))-Nmg-Pro-Thr-Gln-Phe-Cys]-OH] ({NHBu-CO}-C[Sar]PTQFC-OH; linker 1-7 via TBMB(SCH2CH2NH-DOTA)) |
| < 10 | < 10 | < 10 | – | CCCCOC(=O)N[C@H]1CSCc2cc(CSCCNC(=O)CN3CCN(CC(=O)O)CCN(CC(=O)O)CCN(CC(=O)O)CC3)cc(c2)CSC[C@@H](C(=O)O)NC(=O)[C@H](Cc2ccccc2)NC(=O)[C@H](CCC(N)=O)NC(=O)[C@H]([C@@H](C)O)NC(=O)[C@@H]2CCCN2C(=O)[C@@H]2CCCN2C1=O [3BP-3941, nBu-COyl-[Cys(tMeBn(DOTA-AET))-Pro-Pro-Thr-Gln-Phe-Cys]-OH] |
| – | < 10 | < 10 | < 10 | CCCCCC(=O)N[C@H]1CSCc2cc(CSCCNC(=O)CN3CCN(CC(=O)O)CCN(CC(=O)O)CCN(CC(=O)O)CC3)cc(c2)CSC[C@@H](C(=O)N[C@@H](CO)C(=O)O)NC(=O)[C@H](Cc2ccccc2)NC(=O)[C@H](CCC(N)=O)NC(=O)[C@H]([C@@H](C)O)NC(=O)[C@@H]2CCCN2C(=O)[C@@H]2CCCN2C1=O [3BP-3658, Hex-[Cys(tMeBn(DOTA-AET))-Pro-Pro-Thr-Gln-Phe-Cys]-Ser-OH] (Hexanoyl-CPPTQFCS-OH; linker 1-7 via TBMB(SCH2CH2NH-DOTA)) |
| – | < 10 | < 10 | < 10 | CCCCCC(=O)N[C@H]1CSCc2cc(CSCCNC(=O)CN3CCN(CC(=O)O)CCN(CC(=O)O)CCN(CC(=O)O)CC3)cc(c2)CSC[C@@H](C(=O)N[C@H](CC(=O)O)C(N)=O)NC(=O)[C@H](Cc2ccccc2)NC(=O)[C@H](CCC(N)=O)NC(=O)[C@H]([C@@H](C)O)NC(=O)[C@@H]2CCCN2C(=O)[C@@H]2CCCN2C1=O [3BP-3681, Hex-[Cys(tMeBn(DOTA-AET))-Pro-Pro-Thr-Gln-Phe-Cys]-asp-NH2] |
| – | < 10 | < 10 | < 10 | CCCCCC(=O)N[C@H]1CSCc2cc(CSCCNC(=O)CN3CCN(CC(=O)O)CCN(CC(=O)O)CCN(CC(=O)O)CC3)cc(c2)CSC[C@@H](C(=O)NCCCC(=O)O)NC(=O)[C@H](Cc2ccccc2)NC(=O)[C@H](CCC(N)=O)NC(=O)[C@H]([C@@H](C)O)NC(=O)[C@@H]2CCCN2C(=O)[C@@H]2CCCN2C1=O [3BP-3657, Hex-[Cys(tMeBn(DOTA-AET))-Pro-Pro-Thr-Gln-Phe-Cys]-Gab-OH] |
| – | < 10 | < 10 | < 10 | CCCCCC(=O)N[C@H]1CSCc2cccc(c2)CSC[C@@H](C(=O)N[C@@H](CC(=O)O)C(=O)NCCCOCCOCCOCCCNC(=O)CCC(=O)N[C@@H](CCCCNC(=O)CN2CCN(CC(=O)O)CCN(CC(=O)O)CCN(CC(=O)O)CC2)C(N)=O)NC(=O)[C@H](Cc2ccccc2)NC(=O)[C@H](CCC(N)=O)NC(=O)[C@H]([C@@H](C)O)NC(=O)[C@@H]2CCCN2C(=O)[C@@H]2CCCN2C1=O [3BP-3395, Hex-[Cys(3MeBn)-Pro-Pro-Thr-Gln-Phe-Cys]-Asp-Ttds-Lys(DOTA)-NH2] (Hexanoyl-CPPTQFCD-X17; linker 1-7 via mXylylene) |
| < 10 | < 10 | < 10 | – | CCCCNC(=O)N[C@H]1CSCc2cc(CSCCNC(=O)CN3CCN(CC(=O)O)CCN(CC(=O)O)CCN(CC(=O)O)CC3)cc(c2)CSC[C@@H](C(N)=O)NC(=O)[C@H](Cc2ccccc2)NC(=O)[C@H](CCC(N)=O)NC(=O)[C@H]([C@@H](C)O)NC(=O)[C@@H]2CCCN2C(=O)CN(C)C1=O [3BP-4621, nBu-CAyl-[Cys(tMeBn(DOTA-AET))-Nmg-Pro-Thr-Gln-Phe-Cys]-NH2] ({NHBu-CO}-C[Sar]PTQFC-NH2; linker 1-7 via TBMB(SCH2CH2NH-DOTA)) |
